Data reported in ChEMBL document CHEMBL1127650, “Investigation of the active site of aminopeptidase A using a series of new thiol-containing inhibitors” (J Med Chem, 1994).

How the values were obtained:
[1] = target: Aminopeptidase B (Homo sapiens, UniProt Q9H4A4); experiment: Inhibition of arginylaminopeptidase (aminopeptidase B); design: species or system Oryctolagus cuniculus
[2] = system: Glutamyl aminopeptidase (Oryctolagus cuniculus); experiment: Inhibition of aminopeptidase A (APA) at 0.4 mM

Aminopeptidase B, sequence (Q9H4A4 whole entry): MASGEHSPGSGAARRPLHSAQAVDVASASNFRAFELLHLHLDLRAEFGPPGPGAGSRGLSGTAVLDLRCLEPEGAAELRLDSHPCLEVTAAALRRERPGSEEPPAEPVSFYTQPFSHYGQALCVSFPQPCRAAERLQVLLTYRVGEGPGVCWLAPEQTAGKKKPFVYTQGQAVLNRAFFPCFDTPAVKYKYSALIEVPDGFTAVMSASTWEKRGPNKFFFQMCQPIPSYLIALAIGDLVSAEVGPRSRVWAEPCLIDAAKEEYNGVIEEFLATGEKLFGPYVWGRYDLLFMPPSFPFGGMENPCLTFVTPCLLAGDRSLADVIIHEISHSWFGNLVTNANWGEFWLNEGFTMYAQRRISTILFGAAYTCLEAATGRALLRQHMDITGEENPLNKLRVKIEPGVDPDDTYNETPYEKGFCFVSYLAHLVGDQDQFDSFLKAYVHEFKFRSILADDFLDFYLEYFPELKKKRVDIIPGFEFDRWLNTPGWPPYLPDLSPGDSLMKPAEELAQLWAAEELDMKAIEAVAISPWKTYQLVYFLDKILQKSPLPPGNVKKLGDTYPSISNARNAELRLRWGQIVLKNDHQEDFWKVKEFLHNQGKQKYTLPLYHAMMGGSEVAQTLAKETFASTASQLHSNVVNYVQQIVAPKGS

Molecule NCCCCC(S)C(=O)O (centres undefined) has a Ki [1] of 0.9 nM.

NC(CC(=O)O)Cc1ccccc1 (centres undefined) showed an inhibition [2] of 0%.

For NC(CC(=O)NO)Cc1ccccc1 (centres undefined), the inhibition [2] was 0%.

NC(Cc1ccccc1)CP(=O)(O)O (centres undefined) gave an inhibition [2] of 13%.
